# Laboratory results published in patent US12485104B2, “Amino acid derivatives containing a disulfanyl group as an inhibitor of NEP and APN for the prevention and treatment of trigeminal nerve pain” (KOS THERAPEUTICS, INC., priority 2018, dated 2025).
# Assays:
# [1] = tested on: rats, migraine model induced by repeated injection of isosorbide dinitrate (ISDN); assay: Persistent cephalic allodynia induced by recurrent ISDN (chronic migraine), von Frey test, IV treatment; format: in vivo; settings: 20 mg/kg intravenously (FIG. 2)
# Procedure: The effects of systemic administration of compound 1 on mechanical cephalic allodynia were tested in rats in a migraine model induced by repeated systemic injection of an NO donor, isosorbide dinitrate (ISDN). Indeed, the powerful vasodilating action of “NO donors” explains their particular propensity to trigger headache in healthy subjects and migraine attacks in migraine patients (Hansen & Olesen, Cephalalgia (2017), 37: 11-19).
# The experiments were conducted on male Sprague-Dawley CD rats (200-250 g, Charles River Laboratories). A minimum delay of 7 days was respected before any experimentation. […]
# (§1) The mechanical sensitivity of the periorbital region was measured by the von Frey test, which consists of applying a range of von Frey filaments in this region, calibrated to exert a constant force (expressed in grams) to determine the force (threshold) that leads to a head withdrawal reaction. […] The rats then received successive intraperitoneal injections of ISDN (10 mg/kg) and cutaneous sensitivity was assessed by means of the von Frey test. […] On the day of the experiment, the forces exerted by the von Frey filaments that led to head withdrawal were measured in each rat under controlled conditions every 30 minutes for 4 hours. […]
# [2] = tested on: SJL mice, EAE model (hyperalgesia); assay: Tail immersion test in multiple sclerosis model (experimental autoimmune encephalomyelitis, EAE); format: in vivo; settings: for Nociceptive threshold (tail withdrawal latency time): 20 min after administration, 48° C. bath
# Text: The multiple sclerosis model can be induced in SJL mice, female albino white mice, by the administration of an emulsion made up of a myeline fragment and complete Freund® adjuvant (Aicher et al., Pain (2004), 110: 560-570). Central nervous system inflammation appears at the end of around ten days=experimental autoimmune encephalomyelitis, or EAE.
# Female SJL mice, purchased from Charles River Laboratories, arrive at the age of 5 weeks and are immunized at the age of 6 weeks. Each mouse receives, under mask anesthesia (2% isoflurane), an emulsion of a volume of 200 μL in the left flank, containing 150 μg of PLP139-151 (Proteolipid Protein Myelin, fragment 139-151) in 100 μL of sterile 0.9% NaCl as well as 100 μL of incomplete Freund® adjuvant (Sigma) completed by inactivated Mycobacterium tuberculosis (Difco, USA) at 4 mg/mL=complete adjuvant.
# The symptoms of the disease are reported between D10 and D15, which is reflected by an acute phase, during which scores are high and the animals present a loss of pain sensitivity. This phase precedes a chronic phase which starts around D18 and is characterized by stabilization of the animals general condition and the onset of a significant lowering in the pain perception threshold (hyperalgic state) (Aicher et al., Pain (2004), 110: 560-570).
# Nociceptive thresholds were determined from D12 by the tail immersion test.
# Compound 1 is administered IP (intraperitoneally) at 50 mg/kg and 100 mg/kg in a EtOH/Tween 80/Water carrier (10/10/80) (100 μL per 10 g of mice). The measurement of time of tail withdrawal from a 48° C. bath is done at 20 min after injection (cut-off=10 sec).
# [3] = tested on: rats, migraine model induced by single injection of isosorbide dinitrate (ISDN); assay: Mechanical cephalic allodynia induced by single ISDN (acute migraine), von Frey test, oral treatment; format: in vivo; settings: 50 mg/kg orally (FIG. 3)
# Procedure: The effects of systemic administration of compound 1 on mechanical cephalic allodynia were tested in rats in a migraine model induced by single systemic injection of an NO donor, isosorbide dinitrate (ISDN). Indeed, the powerful vasodilating action of “NO donors” explains their particular propensity to trigger headache in healthy subjects and migraine attacks in migraine patients (Hansen & Olesen, Cephalalgia (2017), 37: 11-19).
# The experiments were conducted on male Sprague-Dawley CD rats (200-250 g, Charles River Laboratories). A minimum delay of 7 days was respected before any experimentation.
# (§2) The animals were first subjected to habituation sessions designed to reproduce the animals environmental conditions and handling by the experimenter during the final test.
# as §1, with “an” for “successive”, “injection” for “injections”
# [4] = tested on: rats, chronic migraine model induced by repeated injection of isosorbide dinitrate (ISDN); assay: Prevention of migraine attacks by oral administration, chronic ISDN model, von Frey test; format: in vivo
# Procedure: The effects of oral administration of compound 1 on mechanical cephalic allodynia were tested in rats in a chronic migraine model induced by repeated systemic injection of an NO donor, isosorbide dinitrate (ISDN). Indeed, the powerful vasodilating action of “NO donors” explains their particular propensity to trigger headache in healthy subjects and migraine attacks in migraine patients (Hansen & Olesen, Cephalalgia (2017), 37: 11-19).
# The experiments were conducted on male rats (10 rats per group of the Sprague-Dawley CD strain (200-250 g, Charles River Laboratories), randomly assigned into each group before experimentation. A minimum delay of 7 days was respected before any experimentation. The experiments were conducted with the experimenter blinded.
# as §2
# The mechanical sensitivity of the periorbital region was measured by the von Frey test, which consists of applying a range of von Frey filaments in this region, calibrated to exert a constant force (expressed in grams) to determine the force (threshold) that leads to a head withdrawal reaction. The rats were habituated to these tests for 5 days preceding the experiment for one hour, so that repeated measurements give reproducible results. […] The rats then received successive intraperitoneal injections of ISDN (10 mg/kg) and cutaneous sensitivity was assessed by means of the von Frey test. […]
# Cutaneous mechanical sensitivity was measured before and on the test day (FIG. 4, single administration of compound 1 or FIG. 6, repeated administration of compound 1) or before and on the test day (Days 1, 2, 3, 4 and 5) (FIG. 5, repeated administration of compound 1) before injection and at 30 min intervals for 4 h in the different groups of rats receiving intraperitoneal ISDN (10 mg/kg, volume of 10 mL/kg). […]
# healthy volunteers = assay: Adverse effects observed during phase 1b clinical study; settings: N = 6
# Procedure: The doses indicated in the following table were administered 4 times a day for 5 days, the daily dose varying from 800 to 4000 mg, the total quantity over five days being comprised between 4000 and 20,000 mg.
# [5] = 200 mg 4 times a day for 5 days
# [6] = 400 mg 4 times a day for 5 days
# [7] = 600 mg 4 times a day for 5 days
# [8] = 800 mg 4 times a day for 5 days
# [9] = 1000 mg 4 times a day for 5 days
smiles,measurement,setting,value
"CCOC(=O)OC(C)OC(=O)CNC(=O)[C@@H](CSSC[C@@H](N)CCSC)Cc1ccccc1.O=C(O)/C=C/C(=O)O (stereo partly drawn) [Compound 1, (5S,10S)-10-benzyl-16-methyl-11,14,18-trioxo-15,17,19-trioxa-2,7,8-trithia-12-azahenicosan-5-aminium fumarate]",Effect on cephalic cutaneous sensitivity (von Frey),[1],considerably reduces cephalic cutaneous sensitivity
same,Nociceptive threshold (tail withdrawal latency time),"[2]; 50 mg/kg IP, D21",5.12 (4) seconds
same,Nociceptive threshold (tail withdrawal latency time),"[2]; 50 mg/kg IP, D28",4.14 (5) seconds
same,Nociceptive threshold (tail withdrawal latency time),"[2]; 100 mg/kg IP, D28",5.98 (5) seconds
same,Nociceptive threshold (tail withdrawal latency time),"[2]; 100 mg/kg IP, D35",5.46 (5) seconds
same,Effect on hyperalgesia,[2]; 50 and 100 mg/kg IP (FIG. 1),permits reducing hyperalgesia
same,Effect on cephalic cutaneous sensitivity (von Frey),[3],considerably reduces cephalic cutaneous sensitivity
same,Effect on cutaneous cephalic sensitivity (von Frey),"[4]; 50 mg/kg orally once daily for 5 days, as a function of time after ISDN, versus carrier (FIG. 6)",significantly reduces cutaneous cephalic sensitivity
same,Effect on cutaneous cephalic sensitivity (von Frey),[4]; 50 mg/kg orally once on the experiment day (FIG. 4),had no effect on cutaneous cephalic sensitivity
same,Effect on cutaneous cephalic sensitivity (von Frey),"[4]; 50 mg/kg orally repeatedly over 5 days, before administration of ISDN, versus carrier (FIG. 5)",significantly reduces cutaneous cephalic sensitivity
same,Subjects with Death,healthy volunteers; [5],0
same,Subjects with LAE (limiting adverse event),healthy volunteers; [5],0
same,Subjects with SAE (serious adverse event),healthy volunteers; [5],0
same,"Subjects with TEAEs, (%)",healthy volunteers; [5],16.7%
same,"TEAEs, E = number of adverse reactions",healthy volunteers; [5],3
same,Subjects with Death,healthy volunteers; [6],0
same,Subjects with LAE (limiting adverse event),healthy volunteers; [6],0
same,Subjects with SAE (serious adverse event),healthy volunteers; [6],0
same,"Subjects with TEAEs, (%)",healthy volunteers; [6],83.3%
same,"TEAEs, E = number of adverse reactions",healthy volunteers; [6],12
same,Subjects with Death,healthy volunteers; [7],0
same,Subjects with LAE (limiting adverse event),healthy volunteers; [7],0
same,Subjects with SAE (serious adverse event),healthy volunteers; [7],0
same,"Subjects with TEAEs, (%)",healthy volunteers; [7],66.7%
same,"TEAEs, E = number of adverse reactions",healthy volunteers; [7],7
same,Subjects with Death,healthy volunteers; [8],0
same,Subjects with LAE (limiting adverse event),healthy volunteers; [8],0
same,Subjects with SAE (serious adverse event),healthy volunteers; [8],0
same,"Subjects with TEAEs, (%)",healthy volunteers; [8],100.0%
same,"TEAEs, E = number of adverse reactions",healthy volunteers; [8],10
same,Subjects with Death,healthy volunteers; [9],0
same,Subjects with LAE (limiting adverse event),healthy volunteers; [9],0
same,Subjects with SAE (serious adverse event),healthy volunteers; [9],0
same,"Subjects with TEAEs, (%)",healthy volunteers; [9],66.7%
same,"TEAEs, E = number of adverse reactions",healthy volunteers; [9],15
